Where a name gives a salt, the structure may show the parent alone. Read-outs that look alike come from different tables or passages of the source.
Molecular target: T1, rBCATc (Rattus norvegicus, UniProt P54690)
T1 construct: The supernatant was dialyzed with at least three changes of dialysis buffer; from tissue; host or cells: rat brain (high-speed supernatant of homogenate, dialyzed)
T1 sequence (P54690 1-411): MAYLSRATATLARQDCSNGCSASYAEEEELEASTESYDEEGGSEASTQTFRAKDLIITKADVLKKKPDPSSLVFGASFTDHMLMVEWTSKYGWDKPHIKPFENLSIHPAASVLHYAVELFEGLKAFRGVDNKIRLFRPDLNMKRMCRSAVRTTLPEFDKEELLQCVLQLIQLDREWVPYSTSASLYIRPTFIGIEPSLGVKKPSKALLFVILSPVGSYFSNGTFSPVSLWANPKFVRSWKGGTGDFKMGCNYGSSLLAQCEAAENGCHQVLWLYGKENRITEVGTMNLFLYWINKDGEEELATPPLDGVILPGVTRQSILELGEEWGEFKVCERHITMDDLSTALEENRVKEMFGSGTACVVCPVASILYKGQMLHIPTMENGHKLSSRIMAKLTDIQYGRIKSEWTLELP
Assay: Assay of BCAT ([14C] L-leucine transamination, rat brain supernatant enzyme)
Type: biochemical
Details: 10 mM 2-oxoglutarate, pH 8.3, 10 min, 22 °C
Description: Enzyme preparation: Frozen rat brains were thawed on ice and minced into fine pieces. […] The samples were homogenized in Potters homogenizer (B. Bran Biotech International) at 500 rpm for ten strokes, followed by additional ten strokes at 800 rpm. The homogenates were centrifuged in Beckman J2-M1 centrifuge with rotor JA-20 at 19, 000 rpm for 1 hr. […] The resulting enzyme was stored at -80 °C for further assays.
The solutions for the reaction mixture were made in 10-fold concentrations. After 10 min incubation at room temperature (22 °C), the reaction was stopped by adding 100 µl of 15 mM p-nitrophenyl hydrazine in 2 M HCL. After a few minutes, 1 mL of a toluene-based scintillation liquid (4.5 g of PPO and 0.5 g ofbis-MSB in 1 liter of toluene) was added, the tube was capped and mixed thoroughly with a Vortex mixer. […] Six hundreds µl of organic layer from each tube was placed into scintillation vials, followed by adding 10 ml of scintillation cocktail for counting.

[1] = 25 µM [14C] L-leucine, read-out: rBCATc IC50
[2] = rBCATc IC50, 25 µM [14C] L-leucine

C[C@@H]1CCC(CN)(CC(=O)O)C1 (mixture of isomers) [Example 5, (cis/trans)-(3R)-(1-Aminomethyl-3-methyl-cyclopentyl)-acetic acid hydrochloride]
IC50 [1]: 2930 µM

C[C@@H]1CC(CN)(CC(=O)O)C[C@H]1C (racemic) [Example 4, (±)-(trans)-(1-Aminomethyl-3,4-dimethyl-cyclopentyl)-acetic acid hydrochloride]
IC50 [1]: 2510 µM

CC1CCCCC1(CN)CC(=O)O (single isomer, unassigned) [Example 2, (1-Aminomethyl-2-methyl-cyclohexyl)-acetic acid hydrochloride]
IC50 [2]: 1140 µM

CCNCC1(CC(=O)O)C[C@H](C)C[C@H](C)C1 (stereo in doubt) [Example 59, ((3R, 5S)-1-Ethylaminomethyl-3,5-dimethyl-cyclohexyl)-acetic acid; hydrochloride salt]
IC50 [1]: 3370 µM

CCCNCC1(CC(=O)O)C[C@H](C)C[C@H](C)C1 (stereo in doubt) [Example 62, ((3R, 5S)-3,5-Dimethyl-1-propylaminomethyl-cyclohexyl)-acetic acid; hydrochloride salt]
IC50 [1]: 4220 µM

C[C@@H]1CCC[C@](CN)(CC(=O)O)C1 [Example 1, trans-(1R,3R)(1-Aminomethyl-3-methyl-cyclohexyl)-acetic acid hydrochloride]
IC50 [1]: 146 µM

CC1(C)CCCC(CN)(CC(=O)O)C1 (stereo not drawn) [Example 3, (1-Aminomethyl-3,3-dimethyl-cyclohexyl)-acetic acid hydrochloride]
IC50 [2]: 1660 µM

C[C@@H]1CC(CN)(CC(=O)O)C[C@H]1C [Example 6, (+)-(trans)-(1-Aminomethyl-3,4-dimethyl-cyclopentyl)-acetic acid hydrochloride]
IC50 [1]: 2620 µM

C[C@H]1CC(CN)(CC(=O)O)C[C@@H]1C [Example 7, (+)-(trans)-(1-Aminomethyl-3,4-dimethyl-cyclopentyl)-acetic acid hydrochloride]
IC50 [1]: 2170 µM

C[C@@H]1C[C@H](C)C[C@](CN)(CC(=O)O)C1 [Example 8, 1α,3β,5β-(1-Aminomethyl-3,5-dimethyl-cyclohexyl)-acetic acid hydrochloride]
IC50 [1]: 74 µM

CCCNC[C@@]1(CC(=O)O)C[C@H](C)C[C@H](C)C1 [Example 9, 1α,3β,5β-(3,5-Dimethyl-1-propylaminomethyl-cyclohexyl)-acetic acid; hydrochloride salt]
IC50 [1]: 120 µM

CCNCC1(CC(=O)O)CC(C)CC(C)C1 (stereo not drawn) [Example 10, 1α,3β,5β-(1-Ethylaminomethyl-3,5-dimethyl-cyclohexyl)-acetic acid hydrochloride salt]
IC50 [1]: 121 µM

C[C@@H]1C[C@H](C)C[C@](CNCc2ccccc2)(CC(=O)O)C1 [Example 11, 1α,3β,5β-(1-Benzylamino-methyl)-3,5-dimethyl-cyclohexyl]-acetic acid; hydrochloride salt]
IC50 [1]: 1390 µM

CC1CC(C)CC(CC(=O)O)(CN(C)C)C1 (stereo not drawn) [Example 12, 1α,3β,5β-(1-Dimethylaminomethyl-3,5-dimethyl-cyclohexyl)-acetic acid; hydrochloride salt]
IC50 [1]: 1490 µM

CCCCNC[C@@]1(CC(=O)O)C[C@H](C)C[C@H](C)C1 [Example 13, 1α,3β,5β-(1-Butylaminomethyl-3,5-dimethyl-cyclohexyl)-acetic acid; hydrochloride salt]
IC50 [1]: > 10000 µM

C[C@@H]1C[C@H](C)C[C@@](CC(=O)O)(CN(C)Cc2ccccc2)C1 [Example 14, 1α,3β,5β-{1-[(Benzyl-methyl-amino)-methyl]-3,5-dimethylcyclohexyl}-acetic acid; hydrochloride salt]
IC50 [1]: 8590 µM

CNC[C@@]1(CC(=O)O)C[C@H](C)C[C@H](C)C1 [Example 15, 1α,3β,5β-(3,5-Dimethyl-1-methylaminomethyl-cyclohexyl)-acetic acid; hydrochloride salt]
IC50 [1]: 82 µM

CC(=O)NC[C@@]1(CC(=O)O)C[C@H](C)C[C@H](C)C1 [Example 16, 1α,3β,5β-[1-(Acetylamino-methyl)-3,5-dimethyl-cyclohexyl]-acetic acid]
IC50 [1]: 1320 µM

CC(C)CNC[C@@]1(CC(=O)O)C[C@H](C)C[C@H](C)C1 [Example 17, 1α,3β,5β-(1-(Isobutylamino-methyl)-3,5-dimethyl-cyclohexyl]-acetic acid hydrochloride salt]
IC50 [1]: > 10000 µM

O=C(O)CC1(CNC2CCC2)CCCCC1 [Example 20, hydrochloride salt]
IC50 [1]: 469 µM

CC(C)NC[C@@]1(CC(=O)O)C[C@H](C)C[C@H](C)C1 [Example 21, 1α,3β,5β-(1-(Isopropylamino-methyl)-3,5-dimethyl-cyclohexyl]-acetic acid hydrochloride salt]
IC50 [1]: 169 µM

NCC1(CC(=O)O)CCCCC1 [Example 22, 1-Aminomethyl-1-cyclohexane-acetic acid]
IC50 [1]: 389 µM

NCC1(CC(=O)O)CCCC1 [Example 23, 1-Aminomethyl-1-cyclopentane-acetic acid]
IC50 [1]: 2120 µM

NCC1(CC(=O)O)CCCC1 [Example 24, Sodium salt of 1-aminomethyl-1-cyclopentane-acetic acid]
IC50 [1]: 942 µM

O=C(O)CC1(CO)CCCCC1 [Example 25, Sodium salt of 1-(hydroxymethyl)cyclohexane-acetic acid]
IC50 [1]: 170 µM

CCC(C)CNCC1(CC(=O)O)CCCCC1 (stereo not drawn) [Example 26, {1-[(2-Methyl-butylamino)-methyl]-cyclohexyl}-acetic acid; hydrochloride salt]
IC50 [1]: 8590 µM

O=C(O)CC1(CNCCCC(F)(F)F)CCCCC1 [Example 27, {1-[(4,4,4-Trifluoro-butylamino)-methyl]-cyclohexyl}-acetic acid; hydrochloride salt]
IC50 [1]: 1550 µM

CCNCC1(CC(=O)O)CCCCC1 [Example 28, (1-Ethylaminomethyl-cyclohexyl)-acetic acid hydrochloride salt]
IC50 [1]: 181 µM

O=C(O)CC1(CNCC2CC2)CCCCC1 [Example 29, {1-[(Cyclopropylmethyl-amino)-methyl]-cyclohexyl}-acetic acid hydrochloride salt]
IC50 [1]: 391 µM

CC(CO)NCC1(CC(=O)O)CCCCC1 (stereo not drawn) [Example 30, {1-[(2-Hydroxy-1-methyl-ethylamino)-methyl]-cyclohexyl}-acetic acid hydrochloride salt]
IC50 [1]: 2250 µM

CC(C)CNCC1(CC(=O)O)CCCCC1 [Example 31, [1-(Isobutylamino-methyl)-cyclohexyl]-acetic acid hydrochloride salt]
IC50 [1]: 908 µM

CCCNCC1(CC(=O)O)CCCCC1 [Example 32, (1-Propylaminomethyl-cyclohexyl)-acetic acid hydrochloride salt]
IC50 [1]: 243 µM

CC(C)NCC1(CC(=O)O)CCCCC1 [Example 33, [1-(Isopropylamino-methyl)-cyclohexyl]-acetic acid hydrochloride salt]
IC50 [1]: 1020 µM

O=C(O)CC1(CNC2CCCCC2)CCCCC1 [Example 34, (1-Cyclohexylaminomethyl-cyclohexyl)-acetic acid hydrochloride salt]
IC50 [1]: 3220 µM

O=C(O)CC1(CNCc2ccccc2)CCCCC1 [Example 35, [1-(Benzylamino-methyl)-cyclohexyl]-acetic acid hydrochloride salt]
IC50 [1]: 1770 µM

O=C(O)CC1(CNCC2CCCC2)CCCCC1 [Example 37, {1-[Cyclopentylmethyl-amino)-methyl]-cyclohexyl}-acetic acid; hydrochloric salt]
IC50 [1]: 1190 µM

— patent EP1157000B1 (Warner-Lambert Company LLC, priority 1999, dated 2001)
